From PubChem BioAssay AID248 (DTP/NCI, 2004)
Several values for one entry are separate records, joined by “and”; a condition that tells them apart may be missing. Equal values may be shown once. Inconclusive results and toxic doses are left out. No stated cut-off is given here; in the data, active means T/C of 150% or more; inactive means T/C below 125%.

System: L1210 leukemia ip in BDF1 mice, survival T/C
Experiment: NCI In Vivo Anticancer Drug Screen. Data for tumor model L1210 Leukemia (intraperitoneal) in B6D2F1 (BDF1) mice
Settings: endpoint: mean survival time, higher = longer survival
Outline: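 Ratio derived from survival: compound-dosed mice over vehicle-dosed mice, all bearing a transplantable tumor.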

[1] = dose: 100.0 mg/kg/injection, schedule: Q01DX009 (ip), vehicle: Klucel (hydroxypropylcellulose) (HPC)
[2] = dose: 200.0 mg/kg/injection, schedule: Q01DX009 (ip), vehicle: Klucel (hydroxypropylcellulose) (HPC)
[3] = dose: 100.0 mg/kg/injection, schedule: Q04DX003 (ip), vehicle: Klucel (hydroxypropylcellulose) (HPC)
[4] = dose: 100.0 mg/kg/injection, schedule: Q01DX001 (ip), vehicle: saline with Tween-80
[5] = dose: 200.0 mg/kg/injection, schedule: Q01DX001 (ip), vehicle: saline with Tween-80
[6] = dose: 100.0 mg/kg/injection, schedule: Q01DX009 (ip), vehicle: saline
[7] = dose: 400.0 mg/kg/injection, schedule: Q01DX009 (ip), vehicle: Klucel (hydroxypropylcellulose) (HPC)

Measured: T/C

CC(=O)c1cccc(NC(=O)c2ccco2)c1
inactive: dose: 50.0 mg/kg/injection, schedule: Q01DX009 (ip), vehicle: Klucel (hydroxypropylcellulose) (HPC) 96 % of control | [1] 93 % of control | [2] 93 % of control

CCCCN1CC1CC (stereo not drawn)
inactive: dose: 25.0 mg/kg/injection, schedule: Q04DX003 (ip), vehicle: Klucel (hydroxypropylcellulose) (HPC) 105 % of control | dose: 50.0 mg/kg/injection, schedule: Q04DX003 (ip), vehicle: Klucel (hydroxypropylcellulose) (HPC) 95 % of control | dose: 100.0 mg/kg/injection, schedule: Q01DX001 (ip), vehicle: Klucel (hydroxypropylcellulose) (HPC) 108 % of control | [3] 103 % of control

CCOC(=O)c1[nH]cnc1/N=N/N(C1CCCCC1)C1CCCCC1
inactive: dose: 50.0 mg/kg/injection, schedule: Q01DX001 (ip), vehicle: other 94 % of control | dose: 100.0 mg/kg/injection, schedule: Q01DX001 (ip), vehicle: other 97 % of control | dose: 200.0 mg/kg/injection, schedule: Q01DX001 (ip), vehicle: other 102 % of control | dose: 400.0 mg/kg/injection, schedule: Q01DX001 (ip), vehicle: other 92 % of control

CCN(CC)CCN(Cc1ccccc1)C(=O)C(O)(c1ccccc1)c1ccccc1
inactive: [4] 105 % of control | [5] 108 % of control

O=C1Nc2ccccc2CCc2ccccc21
inactive: [6] 87 % of control | dose: 100.0 mg/kg/injection, schedule: Q04DX003 (ip), vehicle: saline 94 % of control | dose: 200.0 mg/kg/injection, schedule: Q01DX009 (ip), vehicle: saline 100 % of control | dose: 200.0 mg/kg/injection, schedule: Q04DX003 (ip), vehicle: saline 100 % of control | dose: 400.0 mg/kg/injection, schedule: Q01DX009 (ip), vehicle: saline 89 % of control | dose: 400.0 mg/kg/injection, schedule: Q04DX003 (ip), vehicle: saline 96 % of control

CCOC(=O)CNCc1ccc(Cl)c(Cl)c1
inactive: dose: 50.0 mg/kg/injection, schedule: Q04DX003 (ip), vehicle: water 106 % of control | dose: 100.0 mg/kg/injection, schedule: Q04DX003 (ip), vehicle: water 95 % of control and 106 % of control | dose: 200.0 mg/kg/injection, schedule: Q04DX003 (ip), vehicle: water 87 % of control and 92 % of control

Cc1ccc(NC(=O)COc2ccc(C)cc2C)cc1
inactive: dose: 100.0 mg/kg/injection, schedule: Q04DX002 (ip), vehicle: gum acacia 95 % of control | dose: 200.0 mg/kg/injection, schedule: Q04DX002 (ip), vehicle: gum acacia 89 % of control

CC(N)CC(N)CC(=O)O (stereo not drawn)
inactive: dose: 100.0 mg/kg/injection, schedule: Q01DX001 (ip), vehicle: saline 96 % of control and 98 % of control | dose: 200.0 mg/kg/injection, schedule: Q01DX001 (ip), vehicle: saline 98 % of control and 104 % of control | dose: 400.0 mg/kg/injection, schedule: Q01DX001 (ip), vehicle: saline 91 % of control and 102 % of control

Clc1ccc(N=Cc2ccccc2)cn1
inactive: dose: 50.0 mg/kg/injection, schedule: Q01DX001 (ip), vehicle: carboxymethylcellulose (CMC) 105 % of control | dose: 100.0 mg/kg/injection, schedule: Q01DX001 (ip), vehicle: carboxymethylcellulose (CMC) 88 % of control | dose: 200.0 mg/kg/injection, schedule: Q01DX001 (ip), vehicle: carboxymethylcellulose (CMC) 111 % of control | dose: 400.0 mg/kg/injection, schedule: Q01DX001 (ip), vehicle: carboxymethylcellulose (CMC) 100 % of control

Cc1ccc(Cl)cc1NC(=O)C(Cl)Cl
inactive: [1] 92 % of control | [2] 89 % of control | [7] 90 % of control

C/C=C(\c1ccccc1)[N+](=O)[O-]
inactive: dose: 12.5 mg/kg/injection, schedule: Q01DX001 (ip), vehicle: acetone 100 % of control | dose: 12.5 mg/kg/injection, schedule: Q04DX003 (ip), vehicle: acetone 98 % of control | dose: 18.75 mg/kg/injection, schedule: Q01DX009 (ip), vehicle: acetone 98 % of control | dose: 25.0 mg/kg/injection, schedule: Q01DX001 (ip), vehicle: acetone 92 % of control | dose: 25.0 mg/kg/injection, schedule: Q04DX003 (ip), vehicle: acetone 98 % of control | dose: 37.5 mg/kg/injection, schedule: Q01DX009 (ip), vehicle: acetone 106 % of control | dose: 50.0 mg/kg/injection, schedule: Q01DX001 (ip), vehicle: acetone 97 % of control | dose: 50.0 mg/kg/injection, schedule: Q04DX003 (ip), vehicle: acetone 100 % of control | dose: 75.0 mg/kg/injection, schedule: Q01DX009 (ip), vehicle: acetone 88 % of control | dose: 75.0 mg/kg/injection, schedule: Q04DX003 (ip), vehicle: saline 94 % of control

Cc1cc2ncn(C(=O)Nc3ccccc3)c2cc1C
inactive: dose: 100.0 mg/kg/injection, schedule: Q04DX003 (ip), vehicle: saline with Tween-80 92 % of control | dose: 200.0 mg/kg/injection, schedule: Q04DX003 (ip), vehicle: saline with Tween-80 87 % of control | dose: 400.0 mg/kg/injection, schedule: Q04DX003 (ip), vehicle: saline with Tween-80 90 % of control

O=C(O)CCCCCN1C(=O)C2OC3C(=O)N(CCCCCC(=O)O)C(=O)C3C2C1=O (stereo not drawn)
inactive: dose: 100.0 mg/kg/injection, schedule: Q04DX003 (ip), vehicle: carboxymethylcellulose (CMC) 95 % of control | dose: 200.0 mg/kg/injection, schedule: Q04DX003 (ip), vehicle: carboxymethylcellulose (CMC) 95 % of control | dose: 400.0 mg/kg/injection, schedule: Q04DX003 (ip), vehicle: carboxymethylcellulose (CMC) 97 % of control

C=C(c1ccccc1)C(C)C(=O)OCC (stereo not drawn)
inactive: dose: 100.0 mg/kg/injection, schedule: Q01DX009 (ip), vehicle: saline with Tween-80 96 % of control | dose: 200.0 mg/kg/injection, schedule: Q01DX009 (ip), vehicle: saline with Tween-80 101 % of control | dose: 400.0 mg/kg/injection, schedule: Q01DX009 (ip), vehicle: saline with Tween-80 98 % of control

Cc1nnc(N(C)C)nc1C
inactive: [4] 98 % of control | [5] 97 % of control | dose: 400.0 mg/kg/injection, schedule: Q01DX001 (ip), vehicle: saline with Tween-80 108 % of control

CCNC(=S)C(=S)NCC
inactive: dose: 3.0 mg/kg/injection, schedule: Q01DX009 (ip), vehicle: Klucel (hydroxypropylcellulose) (HPC) 92 % of control | dose: 3.12 mg/kg/injection, schedule: Q04DX003 (ip), vehicle: Klucel (hydroxypropylcellulose) (HPC) 100 % of control | dose: 6.0 mg/kg/injection, schedule: Q01DX009 (ip), vehicle: Klucel (hydroxypropylcellulose) (HPC) 97 % of control | dose: 6.25 mg/kg/injection, schedule: Q04DX003 (ip), vehicle: Klucel (hydroxypropylcellulose) (HPC) 104 % of control | dose: 12.5 mg/kg/injection, schedule: Q04DX003 (ip), vehicle: Klucel (hydroxypropylcellulose) (HPC) 98 % of control and 106 % of control

COCC(O)CN1CCN(c2ccccc2C)CC1 (stereo not drawn)
inactive: dose: 25.0 mg/kg/injection, schedule: Q01DX009 (ip), vehicle: saline 108 % of control | dose: 50.0 mg/kg/injection, schedule: Q01DX009 (ip), vehicle: saline 93 % of control | [6] 100 % of control

Cc1cc(=O)n(Cc2ccccc2)c(O)c1C
inactive: [1] 95 % of control | [3] 94 % of control | [2] 91 % of control | dose: 200.0 mg/kg/injection, schedule: Q04DX003 (ip), vehicle: Klucel (hydroxypropylcellulose) (HPC) 94 % of control | [7] 93 % of control | dose: 400.0 mg/kg/injection, schedule: Q04DX003 (ip), vehicle: Klucel (hydroxypropylcellulose) (HPC) 98 % of control

CCc1cc2c(cc1C(=O)/C=C\c1cccc3ccccc13)C(C)(C)CCC2(C)C
inactive: dose: 25.0 mg/kg/injection, schedule: Q04DX002 (ip), vehicle: saline with Tween-80 89 % of control | dose: 100.0 mg/kg/injection, schedule: Q04DX002 (ip), vehicle: saline with Tween-80 89 % of control

C1=C2CN3CCC45c6ccccc6N6CCC(OC1)C(C2CC34)C65 (stereo not drawn)
inactive: dose: 1.25 mg/kg/injection, schedule: Q01DX001 (ip), vehicle: other 105 % of control
